Assays:
Type in all cases: functional
NCI-H460 = experiment: Growth inhibition of human NCI-H460 cells assessed as cell growth at 10^-7 M by sulforhodamine B assay; conditions: read-out: Activity
KM12 = experiment: Growth inhibition of human KM12 cells assessed as cell growth at 10^-7 M by sulforhodamine B assay; conditions: read-out: Activity
HCT-116 = experiment: Growth inhibition of human HCT116 cells assessed as cell growth at 10^-4 M by sulforhodamine B assay; conditions: read-out: Activity
UACC-257 = experiment: Growth inhibition of human UACC257 cells assessed as cell growth at 10^-4 M by sulforhodamine B assay; conditions: read-out: Activity
DU-145 = experiment: Growth inhibition of human DU145 cells assessed as cell growth at 10^-7 M by sulforhodamine B assay; conditions: read-out: Activity
SNB-75 = experiment: Growth inhibition of human SNB75 cells assessed as cell growth at 10^-6 M by sulforhodamine B assay; conditions: read-out: Activity
LOX IMVI = experiment: Growth inhibition of human LOXIMVI cells assessed as cell growth at 10^-8 M by sulforhodamine B assay; conditions: read-out: Activity
SK-MEL-2 = experiment: Growth inhibition of human SK-MEL-2 cells by sulforhodamine B assay
NCI-H322M [1] = experiment: Growth inhibition of human NCI-H322M cells assessed as cell growth at 10^-4 M by sulforhodamine B assay; conditions: read-out: Activity
BT-549 = experiment: Growth inhibition of human BT549 cells assessed as cell growth at 10^-8 M by sulforhodamine B assay; conditions: read-out: Activity
NCI-H226 [2] = experiment: Growth inhibition of human NCI-H226 cells assessed as cell growth at 10^-8 M by sulforhodamine B assay; conditions: read-out: Activity
A498 [3] = experiment: Growth inhibition of human A498 cells assessed as cell growth at 10^-4 M by sulforhodamine B assay; conditions: read-out: Activity
UO-31 = experiment: Growth inhibition of human UO31 cells by sulforhodamine B assay
UACC-62 = experiment: Growth inhibition of human UACC62 cells by sulforhodamine B assay
CAKI-1 = experiment: Growth inhibition of human CAKI-1 cells by sulforhodamine B assay
SK-OV-3 [4] = experiment: Growth inhibition of human SKOV3 cells by sulforhodamine B assay
NCI-H322M [5] = experiment: Growth inhibition of human NCI-H322M cells assessed as cell growth at 10^-8 M by sulforhodamine B assay; conditions: read-out: Activity
SK-MEL-5 = experiment: Growth inhibition of human SK-MEL-5 cells assessed as cell growth at 10^-6 M by sulforhodamine B assay; conditions: read-out: Activity
OVCAR-5 [6] = experiment: Growth inhibition of human OVCAR5 cells assessed as cell growth at 10^-4 M by sulforhodamine B assay; conditions: read-out: Activity
NCI-H226 [7] = experiment: Growth inhibition of human NCI-H226 cells by sulforhodamine B assay
HT-29 [8] = experiment: Growth inhibition of human HT-29 cells assessed as cell growth at 10^-4 M by sulforhodamine B assay; conditions: read-out: Activity
SK-OV-3 [9] = experiment: Growth inhibition of human SKOV3 cells assessed as cell growth at 10^-6 M by sulforhodamine B assay; conditions: read-out: Activity
SF-539 [10] = experiment: Growth inhibition of human SF539 cells assessed as cell growth at 10^-7 M by sulforhodamine B assay; conditions: read-out: Activity
SF-539 [11] = experiment: Growth inhibition of human SF539 cells assessed as cell growth at 10^-8 M by sulforhodamine B assay; conditions: read-out: Activity
RPMI-8226 [12] = experiment: Growth inhibition of human RPMI8226 cells assessed as cell growth at 10^-7 M by sulforhodamine B assay; conditions: read-out: Activity
PC-3 [13] = experiment: Growth inhibition of human PC3 cells by sulforhodamine B assay
HOP-62 = experiment: Growth inhibition of human HOP62 cells assessed as cell growth at 10^-4 M by sulforhodamine B assay; conditions: read-out: Activity
[14] = Growth inhibition of human Hs 578T cells assessed as cell growth at 10^-7 M by sulforhodamine B assay; conditions: read-out: Activity
HOP-92 = experiment: Growth inhibition of human HOP92 cells assessed as cell growth at 10^-8 M by sulforhodamine B assay; conditions: read-out: Activity
786-0 = experiment: Growth inhibition of human 786-0 cells assessed as cell growth at 10^-8 M by sulforhodamine B assay; conditions: read-out: Activity
A498 [15] = experiment: Growth inhibition of human A498 cells assessed as cell growth at 10^-7 M by sulforhodamine B assay; conditions: read-out: Activity
RPMI-8226 [16] = experiment: Growth inhibition of human RPMI8226 cells assessed as cell growth at 10^-4 M by sulforhodamine B assay; conditions: read-out: Activity
OVCAR-5 [17] = experiment: Growth inhibition of human OVCAR5 cells assessed as cell growth at 10^-6 M by sulforhodamine B assay; conditions: read-out: Activity
MDA-MB-468 = experiment: Growth inhibition of human MDA-MB-468 cells assessed as cell growth at 10^-6 M by sulforhodamine B assay; conditions: read-out: Activity
M14 = experiment: Growth inhibition of human M14 cells assessed as cell growth at 10^-8 M by sulforhodamine B assay; conditions: read-out: Activity
PC-3 [18] = experiment: Growth inhibition of human PC3 cells assessed as cell growth at 10^-7 M by sulforhodamine B assay; conditions: read-out: Activity
SF-539 [19] = experiment: Growth inhibition of human SF539 cells by sulforhodamine B assay
HT-29 [20] = experiment: Growth inhibition of human HT-29 cells by sulforhodamine B assay
COLO 205 = experiment: Growth inhibition of human COLO205 cells assessed as cell growth at 10^-4 M by sulforhodamine B assay; conditions: read-out: Activity
[21] = read-out: LC50 (the source's name)
[22] = read-out: pLC50 (the source's name) (converted)

In the case of `CC1(C)C[C@@H](O)[C@]2(C(=O)O)CC[C@]3(C)C(=CC[C@@H]4[C@@]5(C)C/C(=C\C=C\c6ccccc6)C(=O)C(C)(C)[C@@H]5CC[C@]43C)[C@@H]2C1`, the growth at 0.1 µM (NCI-H460) is reported as 101%, the growth at 0.1 µM (KM12) is reported as 99% and the growth at 100 µM (HCT-116) is reported as -55%. It also gave a growth at 100 µM (UACC-257) of -88%, a growth at 0.1 µM (DU-145) of 104% and a growth at 1 µM (SNB-75) of 79%. For the same compound, the growth at 0.01 µM (LOX IMVI) was 97%, the GI50 (SK-MEL-2; read-out: GI50) was 2.35 µM and the CC50 (SK-MEL-2; [21]) was 26.3 µM. It also gave a TGI (SK-MEL-2; read-out: TGI) of 5.57 µM, a GI50 (SK-MEL-2; read-out: pGI50 (converted)) of 2.34 µM and a CC50 (SK-MEL-2; [22]) of 26.3 µM. It also gave a TGI (SK-MEL-2; read-out: pTGI (converted)) of 5.62 µM, a growth at 100 µM (NCI-H322M [1]) of -78% and a growth at 0.01 µM (BT-549) of 101%. The growth at 0.01 µM (NCI-H226 [2]) was 97%, the growth at 100 µM (A498 [3]) was -97% and the GI50 (UO-31; read-out: GI50) was 3.39 µM. It also gave a CC50 (UO-31; [21]) of 45.9 µM, a TGI (UO-31; read-out: TGI) of 13.6 µM and a GI50 (UO-31; read-out: pGI50 (converted)) of 3.39 µM. The CC50 (UO-31; [22]) was 45.7 µM, the TGI (UO-31; read-out: pTGI (converted)) was 13.5 µM and the GI50 (UACC-62; read-out: GI50) was 1.76 µM. The CC50 (UACC-62; [21]) was 7.84 µM, the TGI (UACC-62; read-out: TGI) was 3.71 µM and the GI50 (UACC-62; read-out: pGI50 (converted)) was 1.78 µM. The CC50 (UACC-62; [22]) was 7.76 µM, the TGI (UACC-62; read-out: pTGI (converted)) was 3.72 µM and the GI50 (CAKI-1; read-out: GI50) was 3.57 µM. The CC50 (CAKI-1; [21]) was over 100 µM, the TGI (CAKI-1; read-out: TGI) was 17.7 µM and the GI50 (CAKI-1; read-out: pGI50 (converted)) was 3.55 µM. It also gave a CC50 (CAKI-1; [22]) of over 100 µM, a TGI (CAKI-1; read-out: pTGI (converted)) of 17.8 µM and a GI50 (SK-OV-3 [4]; read-out: GI50) of 3.81 µM. The CC50 (SK-OV-3 [4]; [21]) was 46.4 µM, the TGI (SK-OV-3 [4]; read-out: TGI) was 14.8 µM and the GI50 (SK-OV-3 [4]; read-out: pGI50 (converted)) was 3.8 µM. The CC50 (SK-OV-3 [4]; [22]) was 46.8 µM, the TGI (SK-OV-3 [4]; read-out: pTGI (converted)) was 14.8 µM and the growth at 0.01 µM (NCI-H322M [5]) was 98%. The growth at 1 µM (SK-MEL-5) was 95%, the growth at 100 µM (OVCAR-5 [6]) was -97% and the GI50 (NCI-H226 [7]; read-out: GI50) was 2.78 µM. The LC50 (NCI-H226 [7]; read-out: LC50) was 56.2 µM, the TGI (NCI-H226 [7]; read-out: TGI) was 12.8 µM and the GI50 (NCI-H226 [7]; read-out: pGI50 (converted)) was 2.75 µM. For the same compound, the LC50 (NCI-H226 [7]; read-out: pLC50 (converted)) was 56.2 µM, the TGI (NCI-H226 [7]; read-out: pTGI (converted)) was 12.9 µM and the growth at 100 µM (HT-29 [8]) was -83%. The growth at 1 µM (SK-OV-3 [9]) was 96%, the growth at 0.1 µM (SF-539 [10]) was 92% and the growth at 0.01 µM (SF-539 [11]) was 93%. For the same compound, the growth at 0.1 µM (RPMI-8226 [12]) was 99%, the GI50 (PC-3 [13]; read-out: GI50) was 3.03 µM and the CC50 (PC-3 [13]; [21]) was 63.7 µM. For the same compound, the TGI (PC-3 [13]; read-out: TGI) was 16.3 µM, the GI50 (PC-3 [13]; read-out: pGI50 (converted)) was 3.02 µM and the CC50 (PC-3 [13]; [22]) was 63.1 µM. The TGI (PC-3 [13]; read-out: pTGI (converted)) was 16.2 µM, the growth at 100 µM (HOP-62) was -57% and the growth at 0.1 µM [14] was 92%. The growth at 0.01 µM (HOP-92) was 99%, the growth at 0.01 µM (786-0) was 101% and the growth at 0.1 µM (A498 [15]) was 78%. The growth at 100 µM (RPMI-8226 [16]) was -6%, the growth at 1 µM (OVCAR-5 [17]) was 93% and the growth at 1 µM (MDA-MB-468) was 92%. It also gave a growth at 0.01 µM (M14) of 97%, a growth at 0.1 µM (PC-3 [18]) of 96% and a GI50 (SF-539 [19]; read-out: GI50) of 2.86 µM. The CC50 (SF-539 [19]; [21]) was 36.7 µM, the TGI (SF-539 [19]; read-out: TGI) was 10.6 µM and the GI50 (SF-539 [19]; read-out: pGI50 (converted)) was 2.88 µM. The CC50 (SF-539 [19]; [22]) was 36.3 µM, the TGI (SF-539 [19]; read-out: pTGI (converted)) was 10.7 µM and the GI50 (HT-29 [20]; read-out: GI50) was 2.68 µM. For the same compound, the LC50 (50% cell kill) (HT-29 [20]; read-out: LC50) was 32.9 µM, the TGI (HT-29 [20]; read-out: TGI) was 7.37 µM and the GI50 (HT-29 [20]; read-out: pGI50 (converted)) was 2.69 µM. It also gave an LC50 (50% cell kill) (HT-29 [20]; read-out: pLC50 (converted)) of 33.1 µM, a TGI (HT-29 [20]; read-out: pTGI (converted)) of 7.41 µM and a growth at 100 µM (COLO 205) of -61%.

From ChEMBL document CHEMBL2413072, “Synthesis and in vitro anticancer studies of novel C-2 arylidene congeners of lantadenes” (2013)
